Test [1] concerns the target T1, Electron transfer flavoprotein subunit beta (Homo sapiens, UniProt P38117).
T1 sequence (P38117 whole entry): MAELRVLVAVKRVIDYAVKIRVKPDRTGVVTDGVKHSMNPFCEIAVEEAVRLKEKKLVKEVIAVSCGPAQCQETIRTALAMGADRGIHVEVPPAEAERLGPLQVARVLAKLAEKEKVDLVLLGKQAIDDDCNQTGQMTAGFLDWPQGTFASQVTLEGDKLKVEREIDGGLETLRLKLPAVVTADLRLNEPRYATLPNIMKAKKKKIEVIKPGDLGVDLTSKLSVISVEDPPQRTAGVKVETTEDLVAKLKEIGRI

In test [2] the target is Eukaryotic translation initiation factor 2-alpha kinase 1 (Homo sapiens, UniProt Q9BQI3).
Chain of Eukaryotic translation initiation factor 2-alpha kinase 1 (Q9BQI3 whole entry): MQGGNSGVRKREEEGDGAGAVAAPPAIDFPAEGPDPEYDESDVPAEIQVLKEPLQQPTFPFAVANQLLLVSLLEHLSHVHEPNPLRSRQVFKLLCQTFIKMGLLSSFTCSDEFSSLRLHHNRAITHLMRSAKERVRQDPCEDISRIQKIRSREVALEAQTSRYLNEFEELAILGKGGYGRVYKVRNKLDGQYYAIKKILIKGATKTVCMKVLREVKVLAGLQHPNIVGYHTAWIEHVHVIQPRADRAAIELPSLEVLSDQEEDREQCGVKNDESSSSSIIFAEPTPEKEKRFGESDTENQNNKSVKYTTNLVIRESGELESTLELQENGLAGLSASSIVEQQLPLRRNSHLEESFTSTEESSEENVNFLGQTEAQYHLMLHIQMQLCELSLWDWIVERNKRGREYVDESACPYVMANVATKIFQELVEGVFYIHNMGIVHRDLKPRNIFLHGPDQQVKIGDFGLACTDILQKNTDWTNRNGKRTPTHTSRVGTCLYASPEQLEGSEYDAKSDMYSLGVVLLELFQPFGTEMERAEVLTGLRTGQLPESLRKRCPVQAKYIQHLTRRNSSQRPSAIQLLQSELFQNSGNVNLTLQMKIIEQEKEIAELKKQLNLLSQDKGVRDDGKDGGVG
For test [3], the target named is T2, Serine/threonine-protein kinase D2 (Homo sapiens, UniProt Q9BZL6).
T2 sequence (Q9BZL6 whole entry): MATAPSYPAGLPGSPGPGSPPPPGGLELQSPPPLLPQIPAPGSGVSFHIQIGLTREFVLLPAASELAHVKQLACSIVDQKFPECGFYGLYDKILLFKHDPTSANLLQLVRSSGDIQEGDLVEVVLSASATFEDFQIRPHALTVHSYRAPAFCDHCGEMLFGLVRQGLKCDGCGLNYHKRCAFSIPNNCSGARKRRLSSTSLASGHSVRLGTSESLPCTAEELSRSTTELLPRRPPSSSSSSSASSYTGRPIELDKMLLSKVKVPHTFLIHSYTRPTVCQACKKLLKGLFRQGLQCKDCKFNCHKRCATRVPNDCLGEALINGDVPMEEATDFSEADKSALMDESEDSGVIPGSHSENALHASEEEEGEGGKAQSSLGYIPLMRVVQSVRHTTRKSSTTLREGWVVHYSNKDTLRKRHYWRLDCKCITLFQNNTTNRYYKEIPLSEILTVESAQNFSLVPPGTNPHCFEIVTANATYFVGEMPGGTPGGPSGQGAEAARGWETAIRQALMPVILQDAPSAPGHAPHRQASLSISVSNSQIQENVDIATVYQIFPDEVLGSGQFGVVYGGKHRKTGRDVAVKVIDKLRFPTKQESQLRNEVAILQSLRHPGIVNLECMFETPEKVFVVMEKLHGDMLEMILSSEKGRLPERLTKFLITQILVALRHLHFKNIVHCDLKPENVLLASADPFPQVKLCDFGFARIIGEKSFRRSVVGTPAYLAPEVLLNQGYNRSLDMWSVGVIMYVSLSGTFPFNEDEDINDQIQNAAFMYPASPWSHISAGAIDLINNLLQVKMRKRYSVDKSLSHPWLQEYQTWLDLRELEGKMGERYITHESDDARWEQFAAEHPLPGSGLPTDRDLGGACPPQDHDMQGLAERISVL

For test [4], the target named is 26S proteasome regulatory subunit 6B (Homo sapiens, UniProt P43686).
Chain of 26S proteasome regulatory subunit 6B (P43686 whole entry): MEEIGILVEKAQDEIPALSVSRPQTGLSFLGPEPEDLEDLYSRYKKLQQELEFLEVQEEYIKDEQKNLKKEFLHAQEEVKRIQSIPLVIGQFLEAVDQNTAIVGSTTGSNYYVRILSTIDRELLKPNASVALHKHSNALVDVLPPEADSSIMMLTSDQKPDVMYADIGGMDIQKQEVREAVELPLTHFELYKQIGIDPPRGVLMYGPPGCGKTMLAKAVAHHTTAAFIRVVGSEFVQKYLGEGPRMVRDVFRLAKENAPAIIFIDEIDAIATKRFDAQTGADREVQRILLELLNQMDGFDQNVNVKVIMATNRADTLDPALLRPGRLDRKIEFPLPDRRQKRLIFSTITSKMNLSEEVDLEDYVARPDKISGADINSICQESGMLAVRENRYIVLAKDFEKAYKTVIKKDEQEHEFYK
Test [5] concerns the target T3, Mitogen-activated protein kinase kinase kinase kinase 2 (Homo sapiens, UniProt Q12851).
T3 sequence (Q12851 whole entry): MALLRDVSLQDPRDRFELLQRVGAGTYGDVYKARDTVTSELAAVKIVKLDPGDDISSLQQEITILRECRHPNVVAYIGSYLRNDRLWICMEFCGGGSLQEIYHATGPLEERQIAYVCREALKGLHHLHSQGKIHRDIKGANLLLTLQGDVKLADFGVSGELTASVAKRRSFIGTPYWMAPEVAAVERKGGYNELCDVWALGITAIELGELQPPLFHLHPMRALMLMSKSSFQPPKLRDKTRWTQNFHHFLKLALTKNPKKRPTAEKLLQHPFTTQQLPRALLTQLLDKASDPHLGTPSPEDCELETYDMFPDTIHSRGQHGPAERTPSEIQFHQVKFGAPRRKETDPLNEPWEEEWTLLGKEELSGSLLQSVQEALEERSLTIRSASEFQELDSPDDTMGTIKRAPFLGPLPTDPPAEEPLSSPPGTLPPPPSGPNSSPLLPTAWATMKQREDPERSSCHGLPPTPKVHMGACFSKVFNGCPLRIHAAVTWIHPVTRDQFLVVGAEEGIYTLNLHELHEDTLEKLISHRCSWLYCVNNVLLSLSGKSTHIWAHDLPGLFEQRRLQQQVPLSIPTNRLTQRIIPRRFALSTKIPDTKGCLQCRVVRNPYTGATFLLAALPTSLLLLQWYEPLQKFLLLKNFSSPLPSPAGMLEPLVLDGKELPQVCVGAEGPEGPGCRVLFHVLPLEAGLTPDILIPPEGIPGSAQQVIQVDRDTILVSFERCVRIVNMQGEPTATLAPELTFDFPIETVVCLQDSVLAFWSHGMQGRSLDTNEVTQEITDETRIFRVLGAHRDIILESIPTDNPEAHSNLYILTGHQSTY

Test [6] concerns the target T4, DNA replication licensing factor MCM4 (Homo sapiens, UniProt P33991).
T4 sequence (P33991 whole entry): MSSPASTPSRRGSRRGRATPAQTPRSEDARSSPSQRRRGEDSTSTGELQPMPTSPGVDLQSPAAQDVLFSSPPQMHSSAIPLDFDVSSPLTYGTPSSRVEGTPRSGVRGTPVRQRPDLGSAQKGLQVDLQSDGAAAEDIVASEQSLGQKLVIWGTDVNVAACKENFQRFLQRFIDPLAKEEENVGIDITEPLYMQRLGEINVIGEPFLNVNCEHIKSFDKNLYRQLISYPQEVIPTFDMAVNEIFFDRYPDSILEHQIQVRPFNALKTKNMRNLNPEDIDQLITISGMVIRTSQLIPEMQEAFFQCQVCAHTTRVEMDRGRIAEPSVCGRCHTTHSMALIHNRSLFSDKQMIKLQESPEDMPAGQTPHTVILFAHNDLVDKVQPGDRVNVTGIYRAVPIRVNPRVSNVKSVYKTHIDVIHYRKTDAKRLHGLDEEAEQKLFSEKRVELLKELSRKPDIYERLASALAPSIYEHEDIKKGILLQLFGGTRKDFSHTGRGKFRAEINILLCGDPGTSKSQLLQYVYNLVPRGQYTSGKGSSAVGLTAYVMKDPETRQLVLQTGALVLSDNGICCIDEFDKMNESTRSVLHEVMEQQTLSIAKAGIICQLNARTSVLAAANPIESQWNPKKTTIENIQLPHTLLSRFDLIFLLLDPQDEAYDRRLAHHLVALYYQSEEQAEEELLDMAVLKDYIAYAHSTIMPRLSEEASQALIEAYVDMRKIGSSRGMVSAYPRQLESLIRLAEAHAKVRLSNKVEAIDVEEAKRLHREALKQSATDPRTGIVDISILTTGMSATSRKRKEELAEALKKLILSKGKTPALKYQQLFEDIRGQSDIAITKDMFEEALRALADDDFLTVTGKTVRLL

For test [7], the target named is Mitogen-activated protein kinase kinase kinase kinase 4 (Homo sapiens, UniProt O95819).
Chain of Mitogen-activated protein kinase kinase kinase kinase 4 (O95819 whole entry): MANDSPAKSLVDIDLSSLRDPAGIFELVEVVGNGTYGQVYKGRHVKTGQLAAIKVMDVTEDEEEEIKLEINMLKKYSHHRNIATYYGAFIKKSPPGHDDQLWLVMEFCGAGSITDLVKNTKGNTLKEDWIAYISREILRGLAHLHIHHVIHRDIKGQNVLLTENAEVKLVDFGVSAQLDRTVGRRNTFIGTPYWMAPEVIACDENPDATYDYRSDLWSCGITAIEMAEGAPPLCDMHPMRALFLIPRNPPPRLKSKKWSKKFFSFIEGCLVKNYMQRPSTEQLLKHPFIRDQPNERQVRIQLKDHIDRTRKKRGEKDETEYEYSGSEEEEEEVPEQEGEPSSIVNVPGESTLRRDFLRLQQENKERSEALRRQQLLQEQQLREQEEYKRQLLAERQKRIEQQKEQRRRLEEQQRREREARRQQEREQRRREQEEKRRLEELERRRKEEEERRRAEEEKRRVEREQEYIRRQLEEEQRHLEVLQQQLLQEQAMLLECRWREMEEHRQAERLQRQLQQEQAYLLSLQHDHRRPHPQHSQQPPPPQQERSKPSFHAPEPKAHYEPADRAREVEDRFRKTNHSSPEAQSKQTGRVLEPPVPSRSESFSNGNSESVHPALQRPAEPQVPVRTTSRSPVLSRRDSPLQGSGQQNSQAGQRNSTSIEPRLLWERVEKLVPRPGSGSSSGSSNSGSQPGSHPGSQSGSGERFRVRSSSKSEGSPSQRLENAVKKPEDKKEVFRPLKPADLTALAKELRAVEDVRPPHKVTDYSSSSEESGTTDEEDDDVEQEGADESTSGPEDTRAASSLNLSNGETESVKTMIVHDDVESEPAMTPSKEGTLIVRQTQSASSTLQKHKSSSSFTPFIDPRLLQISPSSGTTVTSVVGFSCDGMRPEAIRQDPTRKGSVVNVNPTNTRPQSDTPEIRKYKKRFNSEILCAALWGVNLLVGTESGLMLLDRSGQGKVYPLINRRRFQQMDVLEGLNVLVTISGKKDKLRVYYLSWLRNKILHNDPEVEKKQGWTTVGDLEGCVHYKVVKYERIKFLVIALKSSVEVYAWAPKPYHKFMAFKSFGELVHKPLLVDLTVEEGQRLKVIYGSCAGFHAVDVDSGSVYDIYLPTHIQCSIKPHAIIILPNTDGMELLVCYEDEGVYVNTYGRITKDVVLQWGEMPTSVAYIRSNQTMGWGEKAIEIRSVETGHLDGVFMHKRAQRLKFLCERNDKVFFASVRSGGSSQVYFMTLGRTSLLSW
The target in the next test is Insulin receptor (Homo sapiens, UniProt P06213).
Chain of Insulin receptor (P06213 28-758 limits assumed): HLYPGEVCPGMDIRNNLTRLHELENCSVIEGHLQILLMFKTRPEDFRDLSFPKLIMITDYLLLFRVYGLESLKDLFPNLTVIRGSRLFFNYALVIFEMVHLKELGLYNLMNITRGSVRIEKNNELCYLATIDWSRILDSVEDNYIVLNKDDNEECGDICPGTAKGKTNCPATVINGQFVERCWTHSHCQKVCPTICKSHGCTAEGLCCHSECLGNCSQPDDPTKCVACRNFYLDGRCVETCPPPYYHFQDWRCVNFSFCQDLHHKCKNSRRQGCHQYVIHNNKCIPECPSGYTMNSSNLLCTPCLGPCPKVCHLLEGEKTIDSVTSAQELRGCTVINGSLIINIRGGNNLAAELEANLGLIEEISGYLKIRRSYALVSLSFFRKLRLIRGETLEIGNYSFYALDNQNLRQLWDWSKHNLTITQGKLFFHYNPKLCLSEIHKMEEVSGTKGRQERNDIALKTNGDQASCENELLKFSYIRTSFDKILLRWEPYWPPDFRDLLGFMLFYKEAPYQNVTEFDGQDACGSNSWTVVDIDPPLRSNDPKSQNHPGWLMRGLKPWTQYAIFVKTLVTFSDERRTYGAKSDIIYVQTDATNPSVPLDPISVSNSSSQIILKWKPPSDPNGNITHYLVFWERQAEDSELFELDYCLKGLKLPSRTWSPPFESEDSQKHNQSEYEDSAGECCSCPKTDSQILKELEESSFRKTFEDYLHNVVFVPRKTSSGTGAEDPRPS
Chain of Insulin receptor (P06213 763-1382 limits assumed): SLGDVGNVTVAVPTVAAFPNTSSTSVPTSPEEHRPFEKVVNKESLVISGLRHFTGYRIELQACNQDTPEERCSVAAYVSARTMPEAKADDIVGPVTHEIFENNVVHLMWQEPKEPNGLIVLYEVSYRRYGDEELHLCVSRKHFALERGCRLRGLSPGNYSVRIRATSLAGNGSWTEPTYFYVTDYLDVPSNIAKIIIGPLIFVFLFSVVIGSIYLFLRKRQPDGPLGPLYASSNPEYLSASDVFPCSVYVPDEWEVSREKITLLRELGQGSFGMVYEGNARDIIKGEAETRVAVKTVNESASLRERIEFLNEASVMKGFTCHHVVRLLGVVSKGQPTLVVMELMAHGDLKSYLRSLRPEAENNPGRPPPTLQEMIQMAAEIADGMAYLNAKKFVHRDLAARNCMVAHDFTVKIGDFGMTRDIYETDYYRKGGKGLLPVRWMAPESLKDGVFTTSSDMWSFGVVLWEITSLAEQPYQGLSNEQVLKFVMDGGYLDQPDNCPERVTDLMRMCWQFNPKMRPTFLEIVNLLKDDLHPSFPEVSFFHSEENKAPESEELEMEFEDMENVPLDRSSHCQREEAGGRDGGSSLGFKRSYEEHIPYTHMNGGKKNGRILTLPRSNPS

This note sets out measurements from ChEMBL document CHEMBL3991601, “The target landscape of clinical kinase drugs” (Science, 2017).

Molecules are shown by their SMILES. Calls of active or inactive are those of the source.
Further: in the data inactive means no Kd found up to 30 µM.

With `S=C(NCc1ccc2c(c1)OCO2)N1CCN(c2ncnc3c2oc2ccccc23)CC1` [AMUVATINIB], the Kd in test [1], in test [2], in test [3], in test [4], in test [5] and in test [6] was > 30 µM (inactive) throughout. The Kd (in test [7]; at Insulin receptor) was > 30 µM (inactive) each time.
On to `O[C@H]1CC[C@H](Nc2ncc3nc(Nc4c(F)cc(F)cc4F)n([C@H]4CCOC4)c3n2)CC1` [TANZISERTIB], for which the Kd in test [2], in test [3], in test [4], in test [5], in test [6] and in test [7] was > 30 µM (inactive) in each case. Also, the Kd at Insulin receptor is > 30 µM (inactive).
Turning to `O=c1[nH]c([C@@H]2CCCN2)nc2c1oc1ccc(Cl)cc12`, the Kd in test [2], in test [3], in test [4], in test [5], in test [6] and in test [7] was > 30 µM (inactive) each time. Besides, the Kd at Insulin receptor was > 30 µM (inactive).
Regarding `O=C(Nc1ccc(OC(F)(F)F)cc1)c1sccc1NCc1ccnc2ccccc12` [OSI-930], the Kd in test [2], in test [3], in test [4], in test [5], in test [6] and in test [7] was > 30 µM (inactive) each time. For the same compound, the Kd on Insulin receptor is > 30 µM (inactive).
Take `CNC(=O)c1ccc(Nc2ncc(C(F)(F)F)c(NCc3nccnc3N(C)S(C)(=O)=O)n2)cc1` [DEFACTINIB]: the Kd in test [2], in test [3], in test [4], in test [5], in test [6] and in test [7] was > 30 µM (inactive) each time. The Kd on Insulin receptor was > 30 µM (inactive).
`CCN1CCN(Cc2ccc(Nc3ncc(F)c(-c4cc(F)c5nc(C)n(C(C)C)c5c4)n3)nc2)CC1` [ABEMACICLIB]: the Kd was 4.84 µM (active) in test [2]; 2.06 µM (active) in test [3]; > 30 µM (inactive) in test [4]; > 30 µM (inactive) in test [5]; > 30 µM (inactive) in test [6]; 1.32 µM (active) in test [7]. For the same compound, the Kd at Insulin receptor was > 30 µM (inactive).
Consider `C[C@@H]1COC(Nc2ccc3ncnc(Nc4ccc(OCc5nccs5)c(Cl)c4)c3c2)=N1` [VARLITINIB], for which the Kd in test [2], in test [3], in test [4], in test [5], in test [6] and in test [7] was > 30 µM (inactive) in each case. Besides, the Kd on Insulin receptor was > 30 µM (inactive).
With `C=CCN(/C=C1/C(=O)O[C@H](COC)[C@@]2(C)C1=C(O)C(=O)C1=C2[C@H](OC(C)=O)C[C@]2(C)C(=O)CC[C@@H]12)CC=C` [SONOLISIB], the Kd (in test [2]; in test [3]; in test [4]; in test [5]; in test [7]; at Insulin receptor) was > 30 µM (inactive) in each case.
As for `COc1cccc(Nc2ncnn3ccc(CN4CC[C@@H](N)[C@H](O)C4)c23)c1` [BMS-690514], the Kd in test [2] is > 30 µM (inactive); in test [3], 0.14 µM (active); in test [4], > 30 µM (inactive); in test [5] it was > 30 µM (inactive); in test [6], > 30 µM (inactive); in test [7], > 30 µM (inactive). The Kd at Insulin receptor was > 30 µM (inactive).
On to `FC(F)(F)c1ccc(CNc2ccc(Cc3c[nH]c4ncc(Cl)cc34)cn2)cn1` [PEXIDARTINIB], for which the Kd in test [2], in test [3], in test [4], in test [5], in test [6] and in test [7] was > 30 µM (inactive) each time. For the same compound, the Kd on Insulin receptor was > 30 µM (inactive).
On to `CC(C)(O)CC(=O)NCCn1ccc2ncnc(Nc3ccc(Oc4cccc(C(F)(F)F)c4)c(Cl)c3)c21` [TAK-285], for which the Kd (in test [2]; in test [4]; in test [5]; in test [6]; in test [7]; on Insulin receptor) was > 30 µM (inactive) in each case.
`Cc1cc(C(=O)Nc2cc(Oc3ccc4nc(NC(=O)C5CC5)cn4n3)ccc2C)n(C)n1` [TAK-593]: the Kd in test [2], in test [3], in test [4], in test [5], in test [6] and in test [7] was > 30 µM (inactive) throughout. Besides, on Insulin receptor, the Kd is > 30 µM (inactive).
In the case of `Cc1cc(-c2cc(OC(=O)c3ccccc3)ccc2Cl)cc2nnc(Nc3ccc(OCCN4CCCC4)cc3)nc12` [TG100-801], the Kd in test [2], in test [3], in test [4], in test [5], in test [6] and in test [7] was > 30 µM (inactive) throughout. Besides, the Kd on Insulin receptor was > 30 µM (inactive).

A word on the Kd: it is the concentration at which binding is half-saturated.
